# Marks after values point to notes of the source that are not given here.
# Assays:
# Format in all cases: in vivo
# Pyricularia oryzae = details: preventive spray on rice seedlings; 100 = 100% disease control, 0 = no control; concentration not marked in table
# Phytophthora infestans [1] = details: preventive spray on tomato seedlings; 100 = 100% disease control, 0 = no control; concentration not marked in table
# Plasmopara viticola [2] = assay: TEST E: preventive spray on grape seedlings, grape downy mildew, disease rating
# Phytophthora infestans [3] = details: curative spray; 100 ppm on potato seedlings
# Plasmopara viticola [4] = assay: TEST G: curative spray on inoculated grape seedlings, grape downy mildew, disease rating; details: for curative utility: curative (post-infection) use, especially for grape downy mildew, statement in words; for Test G disease control rating (grape downy mildew, curative): curative spray on inoculated grape seedlings
# [5] = tested on: Erysiphe graminis f. sp. tritici; assay: TEST A: preventive spray on wheat seedlings, wheat powdery mildew, disease rating; details: 100 = 100% disease control, 0 = no control relative to controls, concentration not marked in table
# Puccinia recondita = assay: TEST B: preventive spray on wheat seedlings, wheat leaf rust, disease rating; details: 100 = 100% disease control, 0 = no control, concentration not marked in table
# [6] = 100 = 100% disease control, 0 = no control, concentration not marked in table
# [7] = concentration not marked in table
Structure (SMILES),Test C disease control rating (rice blast) (Pyricularia oryzae),Test D disease control rating (potato and tomato late blight) (Phytophthora infestans [1]),Test E disease control rating (grape downy mildew) (Plasmopara viticola [2]; [6]),"Test F disease control rating (late blight, curative) (Phytophthora infestans [3])",curative utility (Plasmopara viticola [4]),"Test G disease control rating (grape downy mildew, curative) (Plasmopara viticola [4]; 100 ppm)","Test G disease control rating (grape downy mildew, curative) (Plasmopara viticola [4]; 20 ppm)",Test E disease control rating (grape downy mildew) (Plasmopara viticola [2]; 100 ppm),Test A disease control rating (wheat powdery mildew) [5],Test B disease control rating (wheat leaf rust) (Puccinia recondita),"Test G disease control rating (grape downy mildew, curative) (Plasmopara viticola [4]; [7])"
O=C(NCc1ncc(C(F)(F)F)cc1Cl)c1c(Cl)ccnc1Cl [Compound 28],0%,100%,100%,97# %,significant curative utility,37* %,,,,,
"C[C@@H](NC(=O)c1c(Cl)ccnc1Cl)c1ncc(C(F)(F)F)cc1Cl [Compound 31, 2,4-dichloro-N-[(1R)-1-[3-chloro-5-(trifluoromethyl)-2-pyridinyl]ethyl]-3-pyridinecarboxamide]",0%,100%,100%,,significant curative utility,,100** %,,,,
Cc1cnc(Cl)c(C(=O)NCc2ncc(C(F)(F)F)cc2Cl)c1Cl [Compound 29],0%,100%,100%,,significant curative utility,100* %,,,,,
"CC(NC(=O)c1c(Cl)ccnc1Cl)c1ncc(C(F)(F)F)cc1Cl (single isomer, unassigned) [Cmpd 38]",,,,,,,0** %,69* %,,,
CC(NC(=O)c1c(Cl)ccnc1Cl)c1ncc(C(F)(F)F)cc1Cl (racemic) [Compound 30],0%,100%,100%,,significant curative utility,100* %,,,,,
CC(NC(=O)c1c(Cl)ccnc1Cl)c1ncc(Cl)cc1Cl (racemic) [Compound 36],0%,100%,100%,,significant curative utility,,,,0%,38%,100%
O=C(NCc1ncc(C(F)(F)F)cc1Cl)c1cccnc1Cl [Compound 5],,,98%,,significant curative utility,,,,,19%,99%
Cc1nc(C(F)(F)C(F)(F)F)ccc1C(=O)NCc1ncc(C(F)(F)F)cc1Cl [Cmpd 21],88%,16%,8%,,,,,,69%,68%,
"Cc1cc(Cl)c(C(=O)NCc2ncc(C(F)(F)F)cc2Cl)c(Cl)n1 [Compound 8, 2,4-Dichloro-N-[[3-chloro-5-(trifluoromethyl)-2-pyridinyl]methyl]-6-methyl-3-pyridinecarboxamide]",,100%,100%,,significant curative utility,,,,0%,8%,96%
COCc1nc(C(F)(F)F)ccc1C(=O)NCc1ncc(C(F)(F)F)cc1Cl [Cmpd 23],7%,32%,8%,,,,,,72%,9%,
O=C(NCc1ncc(C(F)(F)F)cc1Cl)c1c(Cl)cncc1Cl [Compound 35],,100%,100%,,significant curative utility,100* %,,,0%,30%,
Cc1nc(C(F)(F)F)ccc1C(=O)NCc1ncc(C(F)(F)F)cc1Cl [Cmpd 20],87%,25%,8%,,,,,,0%,28%,
O=C(NCc1ncc(C(F)(F)F)cc1Cl)c1cccnc1Nc1cccc(C(F)(F)F)c1 [Cmpd 27],0%,32%,16%,,,,,,0%,0%,
O=C(NCc1ncc(C(F)(F)F)cc1Cl)c1ccc(C(F)(F)F)nc1 [Cmpd 26],0%,25%,0%,,,,,,0%,32%,
Cc1cnc(C(=O)NCc2ncc(C(F)(F)F)cc2Cl)c(Cl)c1 [Compound 2],,100%,,,significant curative utility,,,,0%,,99%
O=C(NCc1ncc(C(F)(F)F)cc1Cl)c1cncc(Br)c1 [Cmpd 10],74%,16%,0%,,,,,,0%,9%,
COc1ncccc1C(=O)NCc1ncc(C(F)(F)F)cc1Cl [Cmpd 12],0%,7%,24%,,,,,,0%,19%,
O=C(NCc1ncc(C(F)(F)F)cc1Cl)c1cccnc1O [Cmpd 11],0%,7%,8%,,,,,,0%,9%,
CC(NC(=O)c1c(Cl)ccnc1Cl)c1ncc(Br)cc1Cl (racemic) [Compound 37],0%,100%,100%,,significant curative utility,,,,0%,19%,100%
O=C(NCc1ncc(C(F)(F)F)cc1Cl)c1ccc(C(F)(F)F)nc1-c1ccccc1 [Cmpd 24],7%,25%,8%,,,,,,0%,0%,

# — US7074742B2, “Pyridinyl amides and imides for use as fungicides” (E. I. du Pont de Nemours and Company, priority 2000, dated 2006)
